Test results from patent US10800741B2 (ANCUREALL PHARMACEUTICAL (SHANGHAI) CO., LTD., priority 2017, dated 2020).

How the values were obtained:
KATO III (FGFR2 amp) = assay: In vitro growth inhibition of KATO III tumor cells (MTT/CCK8); type: cell-based, Human; conditions: Homo sapiens, KATO III; in vitro growth inhibition (or induction of apoptosis), cells cultured 3 to 5 days, MTT (CCK8); read-out: IC50 KATO III (FGFR2 amp)
Karpas 299 (NPM-ALK) = assay: In vitro growth inhibition of Karpas 299 tumor cells (MTT/CCK8); type: cell-based, Human; conditions: Homo sapiens, KARPAS-299; in vitro growth inhibition (or induction of apoptosis), cells cultured 3 to 5 days, MTT (CCK8); read-out: IC50 Karpas 299 (NPM-ALK)
DMS114 = assay: In vitro growth inhibition of DMS114 cells; type: cell-based; conditions: Homo sapiens, DMS-114, FGFR1 amp
Experimental: (§1) Adherent cells were digested with 0.25% trypsin-EDTA (Gibco). Suspension culture cells were collected by centrifugation (1700 rpm, 3 minutes). The supernatant was discarded and the cells were counted. According to each cell growth cycle, different concentrations of cells were prepared (5˜10×10^4 cells per ml), and inoculated to 96-well plates (Corning), with 100 μl per well, and incubated overnight at 37° C., 5% CO2. The next day, the test compound was added to the cultured cells (2 wells in parallel). The final concentration of the solvent was less than 1/1,000. The cells were further cultured for 3 to 5 days and assayed by MTT.
(§2) The MTT test reagent was a Dojindo CCK8 kit and the Microplate Reader was a THERMO […] FC instrument.
(§3) The adherent cells were taken out from the cell culture medium, and immediately added to a freshly prepared complete medium containing 10% CCK8 (5% FBS), 100 ul per hole. The suspended cells were directly added to a CCK8 reagent until reaching a final concentration of 10% and cultured for 1 to 4 hours. When a dark yellow color could be observed in the solvent control wells, the absorbance value at OD450 nm was measured and the cell growth rate was calculated according to the following formula: Cell Growth Rate (%)=100×(T−T0)/(C−T0)
(§4) T=optical density of drug-treated cell wells−optical density of blank control wells; T0=optical density of cell wells before drug treatment−optical density of blank control wells; C=optical density of solvent control wells−optical density of blank control wells. […] The experiments were repeated 1 to 3 times and a statistical analysis of data was conducted.
(§5) Mutations in the FGFR1-4 gene often occur in different types of cancer patients. In order to test the growth inhibition activity of the present compound against tumor cells expressing different FGFR variants, tumor cell lines expressing representative FGFR1-4 were selected for further determining the activity of compounds 25, 66, 38 and 95 of the present invention. BGJ398, a selective inhibitor of FGFR1-4, was used as the control compound. The specific test method is the same as test example 1.

MFM-223 = assay: In vitro growth inhibition of MFM-223 cells; type: cell-based; conditions: Homo sapiens, PI3KCA H1047R, FGFR1 amp, FGFR2 amp
Experimental: as §1, §2, §3, §4, §5

MDA-MB-453 = assay: In vitro growth inhibition of MDA-MB-453 cells; type: cell-based; conditions: Homo sapiens, PI3KCA H1047R, FGFR4+++/Y367C
Experimental: as §1, §2, §3, §4, §5

A375 = assay: In vitro growth inhibition of A375 cells; type: cell-based; conditions: Homo sapiens, A-375, BRAF V600E, FGFR2 mutant
Experimental: as §1, §2, §3, §4, §5

RT112/84 = assay: In vitro growth inhibition of RT112/84 cells; type: cell-based; conditions: Homo sapiens, FGFR3-TACC3
Experimental: as §1, §2, §3, §4, §5

JHH-7 = assay: In vitro growth inhibition of JHH-7 cells; type: cell-based; conditions: Homo sapiens, JHH7, FGFR3+++, FGFR4 +++
Experimental: as §1, §2, §3, §4, §5

A2780 = assay: In vitro growth inhibition of PI3KCA amplified/mutant tumor cells A2780; type: cell-based; conditions: Homo sapiens; A2780; PIK3CA E365K; read-out: IC50 growth inhibition
Experimental: as §1, with “Suspension” for “Adherent cells were digested with 0.25% trypsin-EDTA (Gibco). Suspension”
(§6) The adherent cells were taken out from the cell culture medium, and immediately added to a freshly prepared complete medium containing 10% CCK8 (5% FBS), 100 ul per hole. The suspended cells were directly added to a CCK8 reagent until reaching a final concentration of 10% and cultured for 1 to 4 hours.
as §4

AGS = assay: In vitro growth inhibition of PI3KCA amplified/mutant tumor cells AGS; type: cell-based; conditions: Homo sapiens, PI3KCA E453K/E545A, KRAS G12D, read-out: IC50 growth inhibition
Experimental: as §1, with “Suspension” for “Adherent cells were digested with 0.25% trypsin-EDTA (Gibco). Suspension”
as §6, §4

SW48 = assay: In vitro growth inhibition of PI3KCA amplified/mutant tumor cells SW48; type: cell-based; conditions: Homo sapiens; SW48; PI3KCA G914R; EGFR G719S; read-out: IC50 growth inhibition
Experimental: as §1, with “Suspension” for “Adherent cells were digested with 0.25% trypsin-EDTA (Gibco). Suspension”
as §6, §4

HCT116 = assay: In vitro growth inhibition of PI3KCA amplified/mutant tumor cells HCT116; type: cell-based; conditions: Homo sapiens; HCT-116; PI3KCAH1047R; KRAS G13D; read-out: IC50 growth inhibition
Experimental: as §1, with “Suspension” for “Adherent cells were digested with 0.25% trypsin-EDTA (Gibco). Suspension”
as §6, §4

HGC-27 = assay: In vitro growth inhibition of PI3KCA amplified/mutant tumor cells HGC-27; type: cell-based; conditions: Homo sapiens; HGC-27; PI3KCA H1047R; FGFR1OP2+++; read-out: IC50 growth inhibition
Experimental: as §1, with “Suspension” for “Adherent cells were digested with 0.25% trypsin-EDTA (Gibco). Suspension”
as §6, §4

SK-OV-3 = assay: In vitro growth inhibition of PI3KCA amplified/mutant tumor cells SK-OV-3; type: cell-based; conditions: Homo sapiens; SK-OV-3; PI3KCA H1047R; HER2 amp; read-out: IC50 growth inhibition
Experimental: as §1, with “Suspension” for “Adherent cells were digested with 0.25% trypsin-EDTA (Gibco). Suspension”
as §6, §4

Row | IC50 (KATO III (FGFR2 amp)) [nM] | IC50 (Karpas 299 (NPM-ALK)) [nM] | IC50 (MDA-MB-453) [nM] | IC50 (A375) [nM] | IC50 (A2780) [nM] | IC50 (AGS) [nM] | IC50 (SW48) [nM] | IC50 (HCT116) [nM] | IC50 (HGC-27) [nM] | IC50 (SK-OV-3) [nM] | Structure (SMILES) | IC50 (DMS114) [nM] | IC50 (MFM-223) [nM] | IC50 (RT112/84) [nM] | IC50 (JHH-7) [nM]
1 | 0.18 | 11.7 | 19.8 | 16.7 | 9.1 | 41.1 | 13.6 | 11.9 | 19.2 | 32.3 | COc1cc2nccc(Oc3ccc(NC(=O)Nc4cc(C(C)(C)C)nn4C)c(Cl)c3Cl)c2cc1C(N)=O [Compound 38, 4-{4-[3-(5-tert-butyl-2-methyl-2H-pyrazol-3-yl)-ureido]-2,3-dichloro-phenoxy}-7-methoxyquinolin-6-carboxamide] | 4.1 | 14.9 | 10.1 | 9.89
2 | 0.08 | 44.1 | 19.3 | 31.5 | 7.68 | 43.5 | 28.2 | 26.7 | 39.9 | 42.3 | COCCOc1cc2nccc(Oc3ccc(NC(=O)Nc4cc(C(C)(C)C)n[nH]4)c(Cl)c3)c2cc1NC(C)=O [Compound 66, N-[4-{4-[3-(5-tert-butyl-2H-pyrazol-3-yl)-ureido]-3-chloro-phenoxy}-7-(2-methoxy-ethoxy)-quinolin-6-yl]-acetamide] | 3.92 | 17.9 | 25.6 | 12.9
3 | 0.91 | 7.5 | 49.2 | 62.1 | 9.2 | 39.9 | 41.9 | 33.2 | 30.9 | 26.4 | CN1CCN(CCCOc2cc3nccc(Oc4ccc(NC(=O)Nc5cc(C(C)(C)C)n[nH]5)c(Cl)c4Cl)c3cc2C(N)=O)CC1 [Compound 95] | 2.94 | 32.6 | 9.76 | 17.6
